Data reported in PubChem BioAssay AID686957 (The Scripps Research Institute Molecular Screening Center, 2013).
Calls of active or inactive are those of the source. No rule for the calls is given here.

Biological target: T-cell receptor (TCR)-CD3 interaction, human (TCR alpha chain TRAV4)
Experiment: IC50 for blocking TCR-CD3 binding – biochemical, fluorescence, TAMRA-labeled TCR probe, dose response (AID 686957)

O=C(NNC(=O)C1CCN(S(=O)(=O)c2ccccc2C(F)(F)F)CC1)c1ccccc1O
IC50: > 94.1 µM (inactive)

O=C(N/N=C/c1sc(=O)[nH]c1-[n+]1ccc2ccccc2c1)c1ccccc1[O-]
IC50: > 94.1 µM (inactive)

CCc1ccc(NC(=O)NNC(=O)c2ccc3ccccc3c2O)cc1
IC50: > 94.1 µM (inactive)

Cc1nc(S/C(=C/c2ccc(OCc3ccc(C(=O)O)cc3)cc2)C(=O)O)n[nH]1
IC50: > 94.1 µM (inactive)

O=C(O)c1ccccc1/C=N/NC(=O)c1cc(-c2ccco2)nc2ccccc12
IC50: > 94.1 µM (inactive)

O=C(NNC(=O)c1ccc2ccccc2c1O)c1cccs1
IC50: > 94.1 µM (inactive)

COc1cccc(/C=C2/SC(=S)N(CC(=O)NNC(=O)c3ccccc3O)C2=O)c1
IC50: > 94.1 µM (inactive)

O=C(N/N=C/c1c(O)n(Cc2ccco2)c(=O)[nH]c1=O)c1ccccc1O
IC50: > 94 µM (inactive)

C=CCn1c(O)c(N=NC(=O)CNC(=O)/C=C/c2ccco2)c2ccccc21
IC50: > 94.1 µM (inactive)

O=C(N/N=C/c1cc([N+](=O)[O-])ccc1O)/C(=C\c1cccs1)NC(=O)c1ccccc1
IC50: > 94.1 µM (inactive)

CNC(=S)NNC(=O)c1cccn(Cc2cccc(Cl)c2)c1=O
IC50: > 94.1 µM (inactive)

O=C1Nc2ccccc2/C1=N\N=C\c1ccc(O)c(O)c1
IC50: > 94.1 µM (inactive)

O=C(CCl)NNC(=O)c1c(O)c2ccccc2[nH]c1=O
IC50: > 94 µM (inactive)

O=C(CNC(=O)c1cccc(Br)c1)N/N=C/c1cc(Br)cc(Br)c1O
IC50: > 94.1 µM (inactive)

O=C(Nc1cccc(S(=O)(=O)NC2=NCCC2)c1)c1cc(-c2ccco2)nc2ccccc12
IC50: > 94.1 µM (inactive)

COc1ccc(C)cc1NC(=O)NNC(=O)c1cc2ccccc2cc1O
IC50: > 94.1 µM (inactive)

O=C(NC(C(=O)N/N=C/c1cc([N+](=O)[O-])ccc1O)c1n[nH]c(=O)c2ccccc12)c1ccccc1 (centres undefined)
IC50: > 94.1 µM (inactive)

O=C(NC(=S)NNC(=O)c1cccs1)c1ccccc1
IC50: > 94.1 µM (inactive)

CNC(=S)NNC(=O)c1cccn(Cc2ccc(Cl)cc2Cl)c1=O
IC50: > 94.1 µM (inactive)

Cc1cc(C)c(C)c(S(=O)(=O)N2CCC(C(=O)NNC(=O)c3ccccc3O)CC2)c1C
IC50: > 94.1 µM (inactive)

Cc1ccn2cc(-c3ccc(O)c(O)c3)nc2c1
IC50: > 94.1 µM (inactive)

Cc1ccc(S(=O)(=O)N2CCC(C(=O)NNC(=O)c3ccccc3O)CC2)cc1
IC50: > 94.1 µM (inactive)

O=C(N/N=C/c1cn(Cc2cccc(F)c2)c2ccccc12)c1cc(O)cc(O)c1
IC50: > 94.1 µM (inactive)

O=C(N/N=C/c1cc(Br)cc(Br)c1O)c1cccc(N2CCCC2=O)c1
IC50: > 94.1 µM (inactive)

Cc1nc2ccccc2n1CC(=O)c1ccc(O)c(O)c1
IC50: > 94 µM (inactive)

Nc1ccc2nc3c(=O)[nH]c(=S)[nH]c3nc2c1
IC50: 3.74 µM

Cc1c(CC(=O)N2CCN(C(=O)C3COc4ccccc4O3)CC2)c(=O)oc2c(O)c(O)ccc12 (centres undefined)
IC50: 6.03 µM

O=c1c(O)cccc2cc(O)c(O)c(O)c12
IC50: 4.39 µM

O=C(Cc1nnc(NC(=O)c2ccccc2)s1)N/N=C\c1ccc(O)c(O)c1
IC50: > 94.1 µM (inactive)

CC(=O)NNC(=S)NC(=O)c1ccc(C)cc1
IC50: > 94 µM (inactive)

O=C(O)c1ccccc1NS(=O)(=O)c1ccc(N/N=C/c2ccc(O)c(O)c2)c([N+](=O)[O-])c1
IC50: inactive

COc1ccc(C(=O)NNC(=S)NC(=O)c2cccc([N+](=O)[O-])c2)cc1
IC50: > 94.1 µM (inactive)

Cn1c(O)c(/C=N/NC(=O)c2cc3ccccc3cc2O)c2ccccc21
IC50: > 94.1 µM (inactive)

Cc1ccccc1NC(=O)NNC(=O)c1ccc2ccccc2c1O
IC50: > 94.2 µM (inactive)

C/C(=N/NC(=O)c1cc(O)c(O)c(O)c1)c1ccc([N+](=O)[O-])cc1
IC50: > 94.1 µM (inactive)

Cc1cc(C(=O)N/N=C/c2cc(Cl)cc([N+](=O)[O-])c2O)n[nH]1
IC50: > 94.1 µM (inactive)

Oc1ccc(C[C@H]2NCCc3cc(O)c(O)cc32)cc1O
IC50: > 94.1 µM (inactive)

O=c1c2ccccc2c(C=Nc2ccccc2O)c(O)n1-c1nccs1
IC50: > 94.1 µM (inactive)

COc1cc(OC)cc(C(=O)N/N=C/c2ccc(OC)c(COc3ccc4ccccc4c3)c2)c1
IC50: > 94.1 µM (inactive)

CC1CCN(S(=O)(=O)c2ccc(NC(=O)Cn3nnc(-c4ccccc4F)n3)cc2)CC1
IC50: inactive

O=C(N/N=C/c1cc([N+](=O)[O-])cc([N+](=O)[O-])c1O)/C(=C\c1cccs1)NC(=O)c1ccccc1
IC50: > 94.1 µM (inactive)

Cc1ccc(/C=C2\SC(=S)N(CCC(=O)NNC(=O)c3ccccc3O)C2=O)cc1
IC50: > 94.1 µM (inactive)

O=C(N/N=C/c1c(O)n(Cc2ccco2)c(=O)[nH]c1=O)c1ccccc1
IC50: > 94.2 µM (inactive)

O=C(CN1C(=O)S/C(=C\c2ccccc2)C1=O)NNC(=O)c1ccccc1O
IC50: > 94.1 µM (inactive)

O=C(CSc1nc2ccccc2c(=O)n1-c1ccc(F)c(Cl)c1)Nc1cccc(S(=O)(=O)N2CCOCC2)c1
IC50: > 10.5 µM (inactive)

COc1ccc(CC(=O)N/N=C/c2cc([N+](=O)[O-])cc(Br)c2O)cc1
IC50: > 94.1 µM (inactive)

COc1cc([N+](=O)[O-])cc(/C=N/NC(=O)c2cc(C)nc3ccccc23)c1O
IC50: > 94.1 µM (inactive)

Cc1cc(C)c2c(N)c(C(=O)NN)sc2n1
IC50: > 94.1 µM (inactive)

O=C1C(=Cc2cn(-c3ccccc3)nc2-c2ccc(OCc3ccccc3)cc2)SC(=S)N1CCS(=O)(=O)O
IC50: > 94.2 µM (inactive)

O=C(N/N=C/c1cc(Br)ccc1O)c1cccc(N2CCCC2=O)c1
IC50: > 94.1 µM (inactive)

Cc1cccc(C(=O)NCC(=O)NNC(=O)c2ccccc2O)c1
IC50: > 94 µM (inactive)

Nc1nnc(CC(=O)N/N=C\c2cc([N+](=O)[O-])ccc2O)s1
IC50: > 94.1 µM (inactive)

COC(=O)c1cc(O)c(O)c(O)c1
IC50: > 94.3 µM (inactive)

Cc1[nH]n(-c2ccccc2)c(=O)c1N=Nc1ccccc1O
IC50: > 94.1 µM (inactive)

O=c1cc(-c2ccc(O)c(O)c2)oc2ccc3ccccc3c12
IC50: > 94.2 µM (inactive)

CCC(=O)Nc1ccc2nc3c(=O)[nH]c(=S)[nH]c3nc2c1
IC50: > 94.1 µM (inactive)

Cn1c(SCC(=O)NNC(=O)c2ccccc2O)nnc1-c1ccccc1
IC50: > 94.2 µM (inactive)

Nc1ncnc2oc(-c3ccco3)c(-c3ccco3)c12
IC50: inactive

COC(=O)C1CCN(C(=O)c2cc(-c3ccco3)nc3ccccc23)CC1
IC50: > 94.1 µM (inactive)

N#C/C(=C\c1ccc(O)c(O)c1)C(=O)Nc1cccc2ncccc12
IC50: 8.85 µM

CNC(=S)N/N=C/c1cc(Br)cc(Br)c1O
IC50: > 94.1 µM (inactive)

COc1ccc(NS(=O)(=O)c2cc(NC(=O)/C=C/c3cc(OC)c(OC)c(OC)c3)ccc2N2CCCCC2)cc1
IC50: > 94.1 µM (inactive)

O=C(Cc1ccccc1)NNC(=S)NC(=O)c1cccnc1
IC50: > 94.1 µM (inactive)

O=C(NNC(=S)NC(=O)c1cccs1)c1ccc(O)cc1
IC50: > 94 µM (inactive)

O=C(O)c1c[nH]c2c([N+](=O)[O-])cccc2c1=O
IC50: > 31.3 µM (inactive)

CCc1ccccc1NC(=O)NNC(=O)c1ccc2ccccc2c1O
IC50: > 94.1 µM (inactive)

O=c1c2ccccc2nc(COc2ccccc2)n1/N=C/c1cc([N+](=O)[O-])ccc1O
IC50: > 94.1 µM (inactive)

O=C(CNC(=O)c1ccccc1F)NNC(=O)c1ccccc1O
IC50: > 94.1 µM (inactive)

Cc1ccc(OCC(=O)c2c(N)n(C)c(=O)n(C)c2=O)c([N+](=O)[O-])n1
IC50: inactive

Cc1nc(S/C(=C/c2ccc(-c3ccc(C(=O)O)cc3)o2)C(=O)O)n[nH]1
IC50: > 94.2 µM (inactive)

O=C1/C(=C/c2ccco2)SC(=S)N1c1cccnc1
IC50: > 94.1 µM (inactive)

CCC1=NN(C(=O)c2cccc([N+](=O)[O-])c2)C(O)(c2ccc(C)cc2)C1 (centres undefined)
IC50: > 94.1 µM (inactive)

COc1ccc(NC(=O)NNC(=O)c2cc3ccccc3cc2O)cc1
IC50: > 94.1 µM (inactive)

O=C(CCNC(=O)c1ccc(Br)cc1)NNC(=O)c1ccccc1O
IC50: > 94.1 µM (inactive)

O=C(CP(=O)(c1ccccc1)c1ccccc1)N/N=C/c1cc(Br)cc(Br)c1O
IC50: > 94.2 µM (inactive)

CN(C(=O)COC(=O)c1cc(-c2ccco2)nc2ccccc12)C1CCS(=O)(=O)C1 (centres undefined)
IC50: inactive

COc1ccccc1C(=O)NNC(=O)c1ccc(NC(=O)CC(C)C)cc1
IC50: > 94.1 µM (inactive)

CCn1c(SCC(=O)c2ccc(O)c(O)c2)nnc1-c1ccccc1OC
IC50: > 94.1 µM (inactive)

O=C1C=C(O)c2c(O)cc(O)c(O)c2C1=O
IC50: > 94.1 µM (inactive)

Cc1cc(=O)oc2cc(OCC(=O)N/N=C/c3cc([N+](=O)[O-])ccc3O)ccc12
IC50: > 94.1 µM (inactive)

Cc1ccc(C(=O)NNC(=O)c2cc3ccccc3cc2O)cc1
IC50: > 94.1 µM (inactive)

Cc1ccccc1C(=O)NNC(=S)NC(=O)c1cccnc1
IC50: > 94.1 µM (inactive)

O=C(CSc1nnc(-c2ccccc2O)n1Cc1ccccc1)NNC(=O)c1ccccc1O
IC50: > 94.1 µM (inactive)

Cc1cc([N+](=O)[O-])cc(/C=N/n2c(C)nc3ccccc3c2=O)c1O
IC50: > 94 µM (inactive)

C/C(=N\NC(=O)c1nnn(-c2nonc2N)c1-c1ccccc1)c1ccccc1O
IC50: > 94.1 µM (inactive)

CCCCCCn1c(=O)c(C(=O)Nc2ncccc2O)c(O)c2ccccc21
IC50: > 94.2 µM (inactive)

COc1ccc(/C=C2\SC(=O)N(CC(=O)NNC(=O)c3ccccc3O)C2=O)cc1OC
IC50: > 94.1 µM (inactive)

COC(=O)CC1(C(=O)OC)Nc2cc(Cl)c(Cl)cc2S(=O)(=O)N1O (centres undefined)
IC50: > 94.2 µM (inactive)

C/C(=N\NC(=O)c1ccc(-c2ccccc2)cc1)C1C(=O)c2ccccc2C1=O
IC50: > 94.1 µM (inactive)

COc1ccc(NC(=O)NNC(=O)c2ccc3ccccc3c2O)cc1OC
IC50: > 94.1 µM (inactive)

COc1ccc(/C=N\NC(=O)c2cc(O)c(O)c(O)c2)cc1CN1CCN(c2ccc(F)cc2)CC1
IC50: > 94.2 µM (inactive)

O=C(Cc1ccccc1)N/N=C/c1cc(Br)cc(Br)c1O
IC50: > 94.1 µM (inactive)

Oc1ccc(-c2cn3c(n2)SCC3)cc1O
IC50: inactive

O=C(CSc1nnc(-c2ccccc2)n1Cc1ccccc1)NNC(=O)c1ccccc1O
IC50: > 94.1 µM (inactive)
